{"source": "patent US11584711B2", "about": "“2,2,2-trifluoroacetic acid 1-(2,4-dimethylphenyl)-2-[(3-methoxyphenyl)methylene] method of making the same” (Abrexa Pharmaceuticals, Inc., priority 2018, dated 2023)", "key": {"[1]": {"experiment": "Heat storage / variable temperature XRD form conversion", "format": "physicochemical", "conditions": "for form conversion by XRD: 40° C. oven over weekend", "procedure": "Recrystallization Using Heat: Amorphous/glass samples from Panel 1 were placed in a vacuum oven at 60° C. for 6 days. […] A sample of Form I was placed in a 40° C. in oven over a weekend."}, "Grinding": {"experiment": "Grinding", "format": "physicochemical", "conditions": "ball mill 1 minute at 4800 oscillations per minute", "procedure": "Grinding: Form I was ground using a Crescent Wig-L-Bug ball mill for 1 minute at 4800 oscillations per minute (3.2 m/s)."}, "[2]": {"experiment": "Hygroscopicity-Dynamic Vapor Sorption (DVS)", "format": "physicochemical", "conditions": "25° C.; for tendency to hydrate formation (DVS): 0 to 95% RH; for total weight loss (DVS): at 95% RH", "procedure": "Hygroscopicity-Dynamic Vapor Sorption (DVS): DVS is a gravimetric screening technique that measures how quickly and how much of a solvent (water) is adsorbed by a sample. The relative humidity or vapor concentration surrounding the sample is varied while the change in mass of the sample is measured. […] The mass values at each relative humidity step are used to generate the isotherm. Isotherms are divided in two components: sorption for increasing humidity steps and desorption for decreasing humidity steps.\nThe samples were analyzed using a TA Q2000 automated dynamic vapor sorption analyzer. The samples were dried at 40° C. for 5 hours and then cooled to 25° C. with a dry nitrogen purge over them until they no longer lost mass at 0% RH. The samples were then subjected to 0 to 95% RH, back to 0% RH at 25° C. in 5% RH steps."}, "[3]": {"experiment": "Static Vapor Sorption Study", "format": "physicochemical", "conditions": "75% RH static humidity chamber, ambient temperature, after 5 and 12 days", "from_the_text": "Static Vapor Sorption Study: A […] vapor sorption study was done in a sealed humidity chamber with an automatic moisture sorption balance. Data collected during dynamic vapor sorption studies often are not at thermodynamic equilibrium. To determine if the Form I and Form II material form a hydrate over time, samples were monitored in a 75% static humidity chamber.\nIn these studies, samples were stored in open Petri dishes in a chamber containing a saturated salt solution to maintain the relative vapor pressure. A solution of saturated sodium chloride (75% RH) salt at ambient temperature was used.\nThe samples were examined gravimetrically after 5 and 12 days."}, "[4]": {"experiment": "Polymorph screen summary of solid state forms", "format": "physicochemical", "conditions": "room temperature and pressure", "from_the_text": "The raw diffraction data generated from the polymorph screening experiments were categorized into two polymorphic forms. Samples of these different forms were used to perform additional experiments (DSC, TGA, HSM, etc.) to refine the forms.\nThe main result is the discovery of two anhydrous polymorphic forms of J147. The polymorphic forms isolated in this Example were designated I and II. At room temperature and pressure Form II is the thermodynamically form of J147. Form I is the metastable form at room temperature and pressure."}, "[5]": {"experiment": "Competitive Slurry Experiments", "format": "physicochemical", "conditions": "ambient temperature and pressure", "procedure": "These experiments rely on the solubility differences of different polymorphic forms.\nThe slurry experiments were performed by exposing excess material of Forms I and II to a small volume of solvent/water and agitating the resulting suspensions for several days at ambient temperature. The solids were filtered and analyzed by XRD and DSC to determine the resulting form. To avoid possible desolvation or physical change after isolation, the sample was not dried before x-ray analysis."}, "[6]": {"test_system": "transgenic AD mouse model", "conditions": "cited from earlier work"}, "[7]": {"test_system": "neurotoxicity pathways related to aging and neurodegenerative diseases", "conditions": "assays indicating distinct neurotoxicity pathways; cited from earlier work"}, "normal rodents": {"test_system": "normal rodents", "conditions": "cited from earlier work"}, "[8]": {"experiment": "Visual Solubility Measurement", "format": "physicochemical", "conditions": "thermodynamic from solid, ambient temperature, read-out: Approximate Solubility", "procedure": "Visual Solubility Measurement: Approximately 80 mg of J147 was placed into each of 25 vials. Solvent was added and vials were stirred for several minutes at ambient temperature, followed by visual observation for remaining solids. The solvent was incrementally added until the solids were dissolved, or until a maximum volume of solvent was added and the experiment was terminated. These stock solutions were used to set up further panels of experiments."}}, "note": "“Also recorded” adds a separate entry of the source. Where two headings read alike, the source gives them in different places.", "data": [{"smiles": "COc1cccc(/C=N/N(C(=O)C(F)(F)F)c2ccc(C)cc2C)c1", "note": "[Amorphous/glass samples from Panel 1]", "values": [{"measurement": "form by XRD after heating", "setting": "[1]; vacuum oven at 60° C. for 6 days", "result": "XRD pattern of Form II"}]}, {"smiles": "COc1cccc(C=NN(C(=O)C(F)(F)F)c2ccc(C)cc2C)c1", "note": "[Form I, 2,2,2-trifluoroacetic acid 1-(2,4-Dimethylphenyl)-2-[(3-methoxyphenyl)methylene]hydrazide]", "values": [{"measurement": "form transformation by XRD after grinding", "setting": "Grinding", "result": "no transformation"}, {"measurement": "tendency to hydrate formation (DVS)", "setting": "[2]", "result": "does not appear to be prone to hydrate formation; also recorded: did not appear to be prone to hydrate formation"}, {"measurement": "total weight loss (DVS)", "setting": "[2]", "result": "approximately 0.5%"}, {"measurement": "hydrate formation (gravimetric weight change)", "setting": "[3]", "result": "no hydrate formation"}, {"measurement": "Description (thermodynamic stability of form)", "setting": "[4]", "result": "Metastable"}, {"measurement": "form conversion by XRD", "setting": "[1]", "result": "conversion to Form II"}, {"measurement": "form conversion by variable temperature XRD", "setting": "[1]; held at 35° C. over a weekend", "result": "no form conversion"}]}, {"smiles": "COc1cccc(C=NN(C(=O)C(F)(F)F)c2ccc(C)cc2C)c1", "note": "[Form II, 2,2,2-trifluoroacetic acid 1-(2,4-Dimethylphenyl)-2-[(3-methoxyphenyl)methylene]hydrazide]", "values": [{"measurement": "tendency to hydrate formation (DVS)", "setting": "[2]", "result": "does not appear to be prone to hydrate formation"}, {"measurement": "total weight loss (DVS)", "setting": "[2]", "result": "approximately 0.5%"}, {"measurement": "solubility and thermodynamic stability relative to Form I", "setting": "[5]", "result": "less soluble, more thermodynamically stable"}, {"measurement": "hydrate formation (gravimetric weight change)", "setting": "[3]", "result": "no hydrate formation"}, {"measurement": "Description (thermodynamic stability of form)", "setting": "[4]", "result": "Thermodynamically"}, {"measurement": "form conversion by XRD", "setting": "[1]", "result": "no form conversion"}]}, {"smiles": "COc1cccc(/C=N/N(C(=O)C(F)(F)F)c2ccc(C)cc2C)c1", "note": "[Form J147, 2,2,2-trifluoroacetic acid 1-(2,4-Dimethylphenyl)-2-[(3-methoxyphenyl)methylene] hydrazide]", "values": [{"measurement": "effect on synaptic proteins and cognitive decline", "setting": "[6]", "result": "prevent the loss of synaptic proteins and cognitive decline"}, {"measurement": "EC50", "setting": "[7]", "result": "10 to 200", "unit": "nM"}, {"measurement": "effect on memory", "setting": "normal rodents", "result": "improve memory"}, {"measurement": "solubility", "setting": "[8]; organic solvent or mixture, 1-butanol", "result": 40, "unit": "mg/mL"}, {"measurement": "solubility", "setting": "[8]; organic solvent or mixture, 1-propanol", "result": "> 80", "unit": "mg/mL"}, {"measurement": "solubility", "setting": "[8]; organic solvent or mixture, 2-butanol", "result": 40, "unit": "mg/mL"}, {"measurement": "solubility", "setting": "[8]; organic solvent or mixture, 2-propanol", "result": 40, "unit": "mg/mL"}, {"measurement": "solubility", "setting": "[8]; organic solvent or mixture, acetone", "result": "> 80", "unit": "mg/mL"}, {"measurement": "solubility", "setting": "[8]; organic solvent or mixture, acetonitrile (ACN)", "result": "> 80", "unit": "mg/mL"}, {"measurement": "solubility", "setting": "[8]; organic solvent or mixture, butyl amine", "result": "> 80", "unit": "mg/mL"}, {"measurement": "solubility", "setting": "[8]; organic solvent or mixture, chloroform", "result": "> 80", "unit": "mg/mL"}, {"measurement": "solubility", "setting": "[8]; organic solvent or mixture, dichloromethane (DCM)", "result": "> 80", "unit": "mg/mL"}, {"measurement": "solubility", "setting": "[8]; organic solvent or mixture, dimethyl formamide (DMF)", "result": "> 80", "unit": "mg/mL"}, {"measurement": "solubility", "setting": "[8]; organic solvent or mixture, dimethylacetamide (DMA)", "result": "> 80", "unit": "mg/mL"}, {"measurement": "solubility", "setting": "[8]; organic solvent or mixture, ethanol", "result": "> 80", "unit": "mg/mL"}, {"measurement": "solubility", "setting": "[8]; organic solvent or mixture, ethyl acetate", "result": "> 80", "unit": "mg/mL"}, {"measurement": "solubility", "setting": "[8]; organic solvent or mixture, heptane", "result": 8, "unit": "mg/mL"}, {"measurement": "solubility", "setting": "[8]; organic solvent or mixture, isopropyl acetate", "result": "> 80", "unit": "mg/mL"}, {"measurement": "solubility", "setting": "[8]; organic solvent or mixture, isopropyl ether", "result": "> 80", "unit": "mg/mL"}, {"measurement": "solubility", "setting": "[8]; organic solvent or mixture, methanol", "result": "> 80", "unit": "mg/mL"}, {"measurement": "solubility", "setting": "[8]; organic solvent or mixture, methyl ethyl ketone (MEK)", "result": "> 80", "unit": "mg/mL"}, {"measurement": "solubility", "setting": "[8]; organic solvent or mixture, methyl tert butyl ether (MTBE)", "result": "> 80", "unit": "mg/mL"}, {"measurement": "solubility", "setting": "[8]; organic solvent or mixture, nitromethane", "result": "> 80", "unit": "mg/mL"}, {"measurement": "solubility", "setting": "[8]; organic solvent or mixture, pyridine", "result": "> 80", "unit": "mg/mL"}, {"measurement": "solubility", "setting": "[8]; organic solvent or mixture, tetrahydrofuran (THF)", "result": "> 80", "unit": "mg/mL"}, {"measurement": "solubility", "setting": "[8]; organic solvent or mixture, toluene", "result": "> 80", "unit": "mg/mL"}, {"measurement": "solubility", "setting": "[8]; organic solvent or mixture, trifluoroethanol", "result": "> 80", "unit": "mg/mL"}, {"measurement": "solubility", "setting": "[8]; water", "result": "< 1.6", "unit": "mg/mL"}]}]}
